Measured values reported in patent US6235738A, “Diphenyl-substituted heterocycles with 6-membered ring, processes for the preparation thereof and the use thereof as medicaments” (Boehringer Ingelheim Pharma KG, priority 1998, dated 2001).

Tests used:
[1] = system: AMPA receptor; assay: Inhibition of the signal induced by kainate on AMPA receptor (electrophysiology on neuronal cells, Patch-Clamp method); format: cell-based; conditions: concentration not given
Method: The effected on AMPA receptor was tested by electrophysiology on neuronal cells (Patch-Clamp method) (M. L. Mayer, L. Vyklicky and G. L. Westbrook, J. Physiol. 415(1989) 329-350).
Inhibition of the signal induced by kainate on AMPA receptor

[2] = target: Na^+ canal site 2 binding site; assay: Affinity for the "Na^+ canal site 2" binding site; conditions: tests typically at a test concentration of 10 μM
Method: The test of affinity for the "Na^+ canal site 2" binding site was carried out as described by G. B. Brown (J. Neurosci. 6 (1986) 2064). Tests were carried out typically at a test concentration of 10 μM.

SMILES | AMPA Inh. [1] [%] | Ki [2] [µM]
CN(C)CCOc1ccccc1-c1ccnc(-c2ccccc2)n1 [Example 4, 4-{2-[2-(N,N-Dimethylamino)ethyl]oxy-phenyl}-2-phenyl-pyrimidine] | 96 | 4
CN(C)CCOc1ccccc1-c1ncnc(-c2ccccc2)n1 [Example 6, 2-{2-[2-(N,N-Dimethylamino)ethyl]oxy-phenyl}-4-phenyl-1,3,5-triazine] | 66 | 2.8
CN(C)CCOc1ccccc1-c1cnnc(-c2ccccc2)n1 [Example 7, 5-{2-[2-(N,N-Dimethylamino)ethyl]oxy-phenyl}-3-phenyl-1,2,4-triazine] | 98 | 2.4
CN(C)CCOc1ccccc1-c1nncc(-c2ccccc2)n1 [Example 8, 3-{2-[2-(N,N-Dimethylamino)ethyl]oxy-phenyl}-5-phenyl-1,2,4-triazine] | 95 | 
